From EP4707284A1, “HETEROCYCLIC COMPOUND AND USE THEREOF” (Otsuka Pharmaceutical Co., Ltd., priority 2023, dated 2024)

Type: physicochemical
Settings: Tris-hydrochloric acid buffer (pH 7.5) 50 mmol/L, magnesium chloride 5 mmol/L, evaluation compound 1 µmol/L, 37°C, 60 minutes, average of duplicate
Description: The conversion from the evaluation compounds to brexpiprazole in a buffer (i.e., the stability of the evaluation compounds) was evaluated.
The Example 1 compound was dissolved in acetonitrile/water (1:1, v/v) to 10 mmol/L and further diluted with acetonitrile/water (1:1, v/v) to 100 µmol/L for use.
The other Example compounds and the Reference Example 5 compound to Reference Example 7 compound were each dissolved in DMSO to 10 mmol/L and further diluted with acetonitrile to 100 µmol/L for use, except for the following compounds.
The compounds of Examples 52, 95, 96, 117, and 130 (EX 52, EX 95, EX 96, EX 117, and EX 130) were dissolved in acetonitrile/water (8:2, v/v) to 10 mmol/L and further diluted with acetonitrile to 100 µmol/L for use.
The compound of Example 97 (EX 97) was dissolved in acetonitrile/water (8:2, v/v) to 10 mmol/L and further diluted with acetonitrile/water (8:2, v/v) to 100 µmol/L for use.
The compounds of Examples 15 and 116 (EX 15 and EX 116) were dissolved in DMSO to 1 mmol/L and further diluted with acetonitrile to 100 µmol/L for use.
These evaluation compound solutions were prepared at the time of use.
The reaction was conducted by preparing each reaction solution such that the final concentration of each component was as follows. The test was conducted in duplicate.
For the compounds of Examples 1 to 8, 10 to 19, 26 to 27, 37, 50, 87 to 89, 91, 116, 121, 123, 150, and 151 (EX 1 to EX 8, EX 10 to EX 19, EX 26 to EX 27, EX 37, EX 50, EX 87 to EX 89, EX 91, EX 116, EX 121, EX 123, EX 150, and EX 151), and the compounds of Reference Examples 5 to 7 (REX 5 to REX 7), the reaction solution without the evaluation compound (198 µl) was pre-incubated at 37°C for 3 minutes, and then each of the evaluation compound solutions (2 µl) was added and stirred; thereafter, the reaction was started at 37°C. At 0 minutes or 60 minutes after the start of the reaction, the reaction was stopped by adding and stirring a reaction stop solution (1000 µl) composed of acetonitrile/isopropanol (4:1, v/v) containing internal standard substances. However, the 0-minute reaction sample (198 µl) was prepared by adding the evaluation compound (2 µl) after adding the reaction stop solution (1000 µl). The samples after stopping the reaction were used as the measurement samples. Calibration curve samples with the same composition were prepared (final concentrations of the evaluation compounds and brexpiprazole: 0.01, 0.1, and 1 µmol/L, with the proviso that for the evaluation compounds only, the 0-minute reaction samples were also used as calibration curve samples for 1 µmol/L).
For the compounds of Examples 24 to 25, 28 to 29, 32 to 36, 40 to 49, 51 to 60, 62 to 64, 66 to 77, 80 to 86, 90, 92 to 111, 113, 115, 117 to 120, 122, 124 to 130, 132 to 147, and 152 to 160 (EX 24 to EX 25, EX 28 to EX 29, EX 32 to EX 36, EX 40 to EX 49, EX 51 to EX 60, EX 62 to EX 64, EX 66 to EX 77, EX 80 to EX 86, EX 90, EX 92 to EX 111, EX 113, EX 115, EX 117 to EX 120, EX 122, EX 124 to EX 130, EX 132 to EX 147, and EX 152 to EX 160), the reaction solution without the evaluation compound (148.5 µl) was pre-incubated at 37°C for 3 minutes, and then each of the evaluation compound solutions (1.5 µl) was added and stirred; thereafter, the reaction was started at 37°C. At 0 minutes or 60 minutes after the start of the reaction, the reaction was stopped by adding and stirring a reaction stop solution (600 µl) composed of acetonitrile/isopropanol (4:1, v/v) containing internal standard substances. However, the 0-minute reaction sample (148.5 µl) was prepared by adding the evaluation compound (1.5 µl) after adding the reaction stop solution (600 µl). The samples after stopping the reaction were used as the measurement samples. […]

Row | Concentration of brexpiprazole formed [µM] | Concentration of evaluation compound decreased [µM] | Compound
1 | 0.00 | 0.16 | O=C(CCCCCO)OCOP(=O)([O-])OC[N+]1(CCCCOc2ccc3ccc(=O)[nH]c3c2)CCN(c2cccc3sccc23)CC1 [EX 126]
2 | 0.00 | 0.11 | COCCOC(=O)CCCCCCCCCCC(=O)OCOP(=O)([O-])OC[N+]1(CCCCOc2ccc3ccc(=O)[nH]c3c2)CCN(c2cccc3sccc23)CC1 [EX 77]
3 | 0.00 | 0.07 | CC(C)(C)C(=O)OCCCCCCOP(=O)([O-])OC[N+]1(CCCCOc2ccc3ccc(=O)[nH]c3c2)CCN(c2cccc3sccc23)CC1 [EX 102]
4 | 0.00 | -0.01 | CCNP(=O)([O-])OC[N+]1(CCCCOc2ccc3ccc(=O)[nH]c3c2)CCN(c2cccc3sccc23)CC1 [EX 151]
5 | 0.00 | -0.04 | COCCCCOC(=O)OCOP(=O)([O-])OC[N+]1(CCCCOc2ccc3ccc(=O)[nH]c3c2)CCN(c2cccc3sccc23)CC1 [EX 36]
6 | 0.00 | 0.05 | CCC(=O)OCOP(=O)([O-])OC[N+]1(CCCCOc2ccc3ccc(=O)[nH]c3c2)CCN(c2cccc3sccc23)CC1 [EX 120]
7 | 0.00 | 0.07 | CCOC(=O)C1CCN(CCOP(=O)([O-])OC[N+]2(CCCCOc3ccc4ccc(=O)[nH]c4c3)CCN(c3cccc4sccc34)CC2)CC1 [EX 147]
8 | 0.00 | -0.03 | CC(C)(C)OC(=O)NC(C)(C)C(=O)OCOP(=O)([O-])OC[N+]1(CCCCOc2ccc3ccc(=O)[nH]c3c2)CCN(c2cccc3sccc23)CC1 [EX 128]
9 | 0.00 | 0.06 | CC(C)OC(=O)[C@H](C)NP(=O)([O-])OC[N+]1(CCCCOc2ccc3ccc(=O)[nH]c3c2)CCN(c2cccc3sccc23)CC1 [EX 159]
10 | 0.00 | 0.08 | CC(=O)OCCCCCCOP(=O)([O-])OC[N+]1(CCCCOc2ccc3ccc(=O)[nH]c3c2)CCN(c2cccc3sccc23)CC1 [EX 101]
11 | 0.00 | 0.09 | CCOC(=O)OCOP(=O)([O-])OC[N+]1(CCCCOc2ccc3ccc(=O)[nH]c3c2)CCN(c2cccc3sccc23)CC1 [EX 129]
12 | 0.00 | 0.05 | CC1(C)O[C@H]2[C@@H](O1)[C@@H](COP(=O)([O-])OC[N+]1(CCCCOc3ccc4ccc(=O)[nH]c4c3)CCN(c3cccc4sccc34)CC1)O[C@@H]1OC(C)(C)O[C@@H]12 [EX 100]
13 | 0.00 | -0.01 | O=C(OCOP(=O)([O-])OC[N+]1(CCCCOc2ccc3ccc(=O)[nH]c3c2)CCN(c2cccc3sccc23)CC1)N1CCOCC1 [EX 160]
14 | 0.00 | 0.06 | CCCCCCCCOP(=O)([O-])OC[N+]1(CCCCOc2ccc3ccc(=O)[nH]c3c2)CCN(c2cccc3sccc23)CC1 [EX 37]

The remaining lines, values behind:

Row | Compound | Concentration of brexpiprazole formed [µM] | Concentration of evaluation compound decreased [µM]
15 | CCOCCOCCOC(=O)OCOP(=O)([O-])OC[N+]1(CCCCOc2ccc3ccc(=O)[nH]c3c2)CCN(c2cccc3sccc23)CC1 [EX 134] | 0.00 | 0.07
16 | CC(C)NC(=O)CCCCCCCCC(=O)OCOP(=O)([O-])OC[N+]1(CCCCOc2ccc3ccc(=O)[nH]c3c2)CCN(c2cccc3sccc23)CC1 [EX 76] | 0.00 | 0.00
17 | CC(C)(C)C(=O)OP(=O)([O-])OC[N+]1(CCCCOc2ccc3ccc(=O)[nH]c3c2)CCN(c2cccc3sccc23)CC1 [EX 150] | 0.00 | 0.11
18 | CSCCCOP(=O)([O-])OC[N+]1(CCCCOc2ccc3ccc(=O)[nH]c3c2)CCN(c2cccc3sccc23)CC1 [EX 66] | 0.00 | 0.17
19 | CCOCCOP(=O)([O-])OC[N+]1(CCCCOc2ccc3ccc(=O)[nH]c3c2)CCN(c2cccc3sccc23)CC1 [EX 94] | 0.00 | -0.07
20 | CCOCCOCCOP(=O)([O-])OC[N+]1(CCCCOc2ccc3ccc(=O)[nH]c3c2)CCN(c2cccc3sccc23)CC1 [EX 98] | 0.00 | -0.02
21 | O=C(OCOP(=O)([O-])OC[N+]1(CCCCOc2ccc3ccc(=O)[nH]c3c2)CCN(c2cccc3sccc23)CC1)OCC1CCOCC1 [EX 142] | 0.00 | -0.07
22 | CC(C)COC(=O)[C@@H](C)OP(=O)([O-])OC[N+]1(CCCCOc2ccc3ccc(=O)[nH]c3c2)CCN(c2cccc3sccc23)CC1 [EX 107] | 0.00 | 0.07
23 | O=c1ccc2ccc(OCCCC[N+]3(COP(=O)([O-])OCC4CC4)CCN(c4cccc5sccc45)CC3)cc2[nH]1 [EX 91] | 0.00 | 0.12
24 | CCCCCC(=O)OC[N+]1(CCCCOc2ccc3ccc(=O)[nH]c3c2)CCN(c2cccc3sccc23)CC1.[I-] [REX 6, 4-(Benzo[b]thiophen-4-yl)-1-((hexanoyloxy)methyl)-1-(4-((2-oxo-1,2-dihydroquinolin-7-yl)oxy)butyl)piperazin-1-ium iodide, reference compound] | 0.21 | 0.22
25 | O=c1ccc2ccc(OCCCC[N+]3(COP(=O)([O-])OCCCCCCCCO)CCN(c4cccc5sccc45)CC3)cc2[nH]1 [EX 11, (4-(benzo[b]thiophen-4-yl)-1-(4-((2-oxo-1,2-dihydroquinolin-7-yl)oxy)butyl)piperazin-1-ium-1-yl)methyl (8-hydroxyoctyl) phosphate] | 0.00 | 0.03
26 | CCC(CC)COC(=O)[C@@H](C)OP(=O)([O-])OC[N+]1(CCCCOc2ccc3ccc(=O)[nH]c3c2)CCN(c2cccc3sccc23)CC1 [EX 108] | 0.00 | 0.08
27 | CCC(=O)OC[N+]1(CCCCOc2ccc3ccc(=O)[nH]c3c2)CCN(c2cccc3sccc23)CC1.[I-] [REX 5, 4-(Benzo[b]thiophen-4-yl)-1-(4-((2-oxo-1,2-dihydroquinolin-7-yl)oxy)butyl)-1-((propionyloxy)methyl)piperazin-1-ium iodide, reference compound] | 0.26 | 0.20

Same assay, conditions: Tris-hydrochloric acid buffer (pH 7.5), 37°C, 60 minutes

Row | Compound | stability in the buffer / conversion to brexpiprazole (in words)
28 | CCCCCC(=O)OC[N+]1(CCCCOc2ccc3ccc(=O)[nH]c3c2)CCN(c2cccc3sccc23)CC1.[I-] [REX 6, 4-(Benzo[b]thiophen-4-yl)-1-((hexanoyloxy)methyl)-1-(4-((2-oxo-1,2-dihydroquinolin-7-yl)oxy)butyl)piperazin-1-ium iodide, reference compound] | clearly degraded to brexpiprazole
29 | CCC(=O)OC[N+]1(CCCCOc2ccc3ccc(=O)[nH]c3c2)CCN(c2cccc3sccc23)CC1.[I-] [REX 5, 4-(Benzo[b]thiophen-4-yl)-1-(4-((2-oxo-1,2-dihydroquinolin-7-yl)oxy)butyl)-1-((propionyloxy)methyl)piperazin-1-ium iodide, reference compound] | clearly degraded to brexpiprazole
